Test system: experimentally induced osteoarthritis
Experiment: experimentally induced osteoarthritis in guinea pigs (partial medial meniscectomy), joint histology
Type: in vivo, Dunkin Hartley guinea pigs
Conditions: 1, 3 and 10 mg/kg/day orally by gavage, 10 weeks, operated right hind leg joint, blinded pathologist
Experimental: The following description gives evidence on which the invention is based.
Dunkin Hartley guinea pigs(apart from the blank control) were anaesthetised and underwent partial medial meniscectomy in the right hind leg. 3 doses of +mefloquine, (1 mg/kg/day, 3 mg/kg/day and 10 mg/kg/day) were administered orally by gavage to groups of 10 animals as well as a vehicle control. The vehicle was 0.2% methylcellulose and 0.4% Tween 80 in bidistilled water for the mefloquine groups. The administration volume was 2 mL/kg.
The animals were followed for 10 weeks. Terminal blood samples were taken for drug levels. Histology was performed on the joint, which was operated on, and an assessment of the cartilage structure, cell proliferation and loss of proteoglycans was made. The histology was performed by a blinded pathologist.

For `O[C@H](c1cc(C(F)(F)F)nc2c(C(F)(F)F)cccc12)[C@@H]1CCCCN1` [+mefloquine, (+)-erythro-mefloquine], the “degeneration of cartilage (histology: cartilage structure, cell proliferation, loss of proteoglycans)” value was “prevents the degeneration of cartilage”.

Reference: patent publication US20040220221A1, “Treatment of degenerative diseases” (priority 2002, published 2004)
